Laboratory results taken from the NIST ThermoML archive (doi:10.1021/je050294+).

Experiments:
[1] = xn = mol fraction of the nth substance listed; conditions: Liquid; for speed of sound: Linear variable-path acoustic interferometer; for mass density: Vibrating tube method
[2] = excess molar enthalpy (molar enthalpy of mixing); xn = mol fraction of the nth substance listed; conditions: 101 kPa, Liquid, Flow calorimetry

C=C1CCC2CC1C2(C)C (stereo not drawn) [β-pinene] + CCC(C)O
[1], 101.3 kPa
Conditions	mass density [kg/m3]	speed of sound [m/s]
283.15 K, x1 = 0.0526	820.26	1271.9
283.15 K, x1 = 0.1031	824.88	1276.6
283.15 K, x1 = 0.2058	833.37	1285.1
283.15 K, x1 = 0.3006	840.38	1292.5
283.15 K, x1 = 0.4019	847.14	1299.8
283.15 K, x1 = 0.5035	853.29	1307.2
283.15 K, x1 = 0.6023	858.87	1314.9
283.15 K, x1 = 0.7047	864.32	1323.5
283.15 K, x1 = 0.7995	869.14	1332.4
283.15 K, x1 = 0.8988	873.93	1342.4
283.15 K, x1 = 0.9401	875.92	1347
298.15 K, x1 = 0.0522	807.98	1216.6
298.15 K, x1 = 0.105	812.54	1220.2
298.15 K, x1 = 0.206	820.79	1227.3
298.15 K, x1 = 0.3006	827.65	1233.5
298.15 K, x1 = 0.3995	834.25	1240
298.15 K, x1 = 0.5017	840.58	1247.2
298.15 K, x1 = 0.6096	846.71	1255.5
298.15 K, x1 = 0.7011	851.61	1263
298.15 K, x1 = 0.8035	856.93	1272.5
298.15 K, x1 = 0.9067	862.02	1282.6
298.15 K, x1 = 0.9449	863.9	1287
313.15 K, x1 = 0.0526	794.95	1161.7
313.15 K, x1 = 0.0997	799.22	1164.1
313.15 K, x1 = 0.2028	807.25	1170.4
313.15 K, x1 = 0.2999	814.22	1175.7
313.15 K, x1 = 0.4043	821.27	1182.5
313.15 K, x1 = 0.5088	827.69	1189.9
313.15 K, x1 = 0.6027	833.19	1197
313.15 K, x1 = 0.6993	838.59	1205
313.15 K, x1 = 0.8035	844.16	1214.6
313.15 K, x1 = 0.896	848.93	1223.2
313.15 K, x1 = 0.9453	851.52	1228.7

excess molar enthalpy [kJ/mol], [2]
Conditions	283.15 K	298.15 K	313.15 K
x1 = 0.066	0.128	0.173	0.166
x1 = 0.134	0.263	0.364	0.405
x1 = 0.259	0.463	0.637	0.749
x1 = 0.38	0.6	0.818	0.981
x1 = 0.489	0.687	0.932	1.122
x1 = 0.581	0.72	0.972	1.174
x1 = 0.677	0.709	0.95	1.158
x1 = 0.765	0.65	0.87	1.08
x1 = 0.845	0.549	0.739	0.934
x1 = 0.927	0.387	0.531	0.675
x1 = 0.963	0.28	0.378	0.469

C=C1CCC2CC1C2(C)C (stereo not drawn) [β-pinene] + CCCCO
[1], 101 kPa
Conditions	mass density [kg/m3]	speed of sound [m/s]
283.15 K, x1 = 0.0494	822.4	1295.8
283.15 K, x1 = 0.1023	827.32	1299.6
283.15 K, x1 = 0.204	835.8	1305.9
283.15 K, x1 = 0.3052	843.23	1311.7
283.15 K, x1 = 0.4007	849.5	1316.8
283.15 K, x1 = 0.5005	855.39	1321.9
283.15 K, x1 = 0.5929	–	1323.6
283.15 K, x1 = 0.695	865.44	1332
283.15 K, x1 = 0.7975	870.17	1338.1
283.15 K, x1 = 0.9009	874.7	1345.2
283.15 K, x1 = 0.9179	875.44	1347.3
298.15 K, x1 = 0.054	811.4	1243.7
298.15 K, x1 = 0.1027	815.79	1246.2
298.15 K, x1 = 0.1893	822.86	1250.3
298.15 K, x1 = 0.2992	830.92	1255.2
298.15 K, x1 = 0.4011	837.49	1259.4
298.15 K, x1 = 0.4987	843.18	1263.5
298.15 K, x1 = 0.6041	848.79	1268.1
298.15 K, x1 = 0.6946	853.25	1272.3
298.15 K, x1 = 0.7745	856.95	1276.6
298.15 K, x1 = 0.9003	862.46	1284.6
298.15 K, x1 = 0.9349	863.93	1287.4
313.15 K, x1 = 0.0493	799.21	1193.1
313.15 K, x1 = 0.1011	803.76	1194.6
313.15 K, x1 = 0.1988	811.57	1197.8
313.15 K, x1 = 0.3012	818.82	1201
313.15 K, x1 = 0.3998	825.01	1203.9
313.15 K, x1 = 0.5009	830.84	1207.3
313.15 K, x1 = 0.6003	836.12	1211.4
313.15 K, x1 = 0.7062	841.36	1216.2
313.15 K, x1 = 0.8017	845.7	1221.1
313.15 K, x1 = 0.8988	850.1	1227.1
313.15 K, x1 = 0.954	852.44	1231.4

excess molar enthalpy [kJ/mol], [2]
Conditions	283.15 K	298.15 K	313.15 K
x1 = 0.066	0.049	0.069	0.089
x1 = 0.134	0.106	0.153	0.196
x1 = 0.259	0.215	0.31	0.428
x1 = 0.371	0.303	0.427	0.574
x1 = 0.489	0.377	0.525	0.711
x1 = 0.591	0.423	0.577	0.78
x1 = 0.677	0.438	0.592	0.793
x1 = 0.765	0.412	0.557	0.751
x1 = 0.856	0.354	0.476	0.642
x1 = 0.927	0.282	0.372	0.487
x1 = 0.975	0.182	0.279	0.329
